Experimental data: ChEMBL document CHEMBL3232845 (Bioorg Med Chem Lett, 2014)
pIC50: −log10 of the molar value.

Tests used:
[1] = biological target: Protein kinase C iota type (Homo sapiens) (UniProt P41743); test: Inhibition of human PKCiota assessed as enzyme activity at 1 uM relative to control; set-up: scale not given: the % may be the effect or the level left
[2] = biological target: Activin receptor type-1B (Homo sapiens) (UniProt P36896); test: Inhibition of human ALK4 assessed as enzyme activity at 1 uM relative to control; set-up: scale not given: the % may be the effect or the level left
[3] = biological target: Hepatocyte growth factor receptor (Homo sapiens) (UniProt P08581); test: Inhibition of human Met assessed as enzyme activity at 1 uM relative to control; set-up: scale not given: the % may be the effect or the level left
[4] = biological target: RAC-gamma serine/threonine-protein kinase (Homo sapiens) (UniProt Q9Y243); test: Inhibition of human AKT3 assessed as enzyme activity at 1 uM relative to control; set-up: scale not given: the % may be the effect or the level left
[5] = biological target: Serine/threonine-protein kinase PLK3 (Homo sapiens) (UniProt Q9H4B4); test: Inhibition of human Plk3 assessed as enzyme activity at 1 uM relative to control; set-up: scale not given: the % may be the effect or the level left
[6] = biological target: Serine/threonine-protein kinase MARK2 (Homo sapiens) (UniProt Q7KZI7); test: Inhibition of human MARK2 assessed as enzyme activity at 1 uM relative to control; set-up: scale not given: the % may be the effect or the level left
[7] = biological target: Ephrin type-A receptor 8 (Homo sapiens) (UniProt P29322); test: Inhibition of human EphA8 assessed as enzyme activity at 1 uM relative to control; set-up: scale not given: the % may be the effect or the level left
[8] = biological target: Protein-tyrosine kinase 6 (Homo sapiens) (UniProt Q13882); test: Inhibition of human PTK6 assessed as enzyme activity at 1 uM relative to control; set-up: scale not given: the % may be the effect or the level left
[9] = biological target: Mitogen-activated protein kinase 1 (Homo sapiens) (UniProt P28482); test: Inhibition of human ERK2 assessed as enzyme activity at 1 uM relative to control; set-up: scale not given: the % may be the effect or the level left
[10] = biological target: Phosphorylase b kinase gamma catalytic chain, liver/testis isoform (Homo sapiens) (UniProt P15735); test: Inhibition of human PhKgamma2 assessed as enzyme activity at 1 uM relative to control; set-up: scale not given: the % may be the effect or the level left
[11] = biological target: Homeodomain-interacting protein kinase 3 (Homo sapiens) (UniProt Q9H422); test: Inhibition of human HIPK3 assessed as enzyme activity at 1 uM relative to control; set-up: scale not given: the % may be the effect or the level left
[12] = biological target: NUAK family SNF1-like kinase 1 (Homo sapiens) (UniProt O60285); test: Inhibition of human ARK5 assessed as enzyme activity at 1 uM relative to control; set-up: scale not given: the % may be the effect or the level left
[13] = biological target: Tyrosine-protein kinase JAK2 (Homo sapiens) (UniProt O60674); test: Inhibition of human JAK2 assessed as enzyme activity at 1 uM relative to control; set-up: scale not given: the % may be the effect or the level left
[14] = biological target: Serine/threonine-protein kinase Sgk1 (Homo sapiens) (UniProt O00141); test: Inhibition of human SGK1 assessed as enzyme activity at 1 uM relative to control; set-up: scale not given: the % may be the effect or the level left
[15] = biological target: Receptor-type tyrosine-protein kinase FLT3 (Homo sapiens) (UniProt P36888); test: Inhibition of human Flt3 assessed as enzyme activity at 1 uM relative to control; set-up: scale not given: the % may be the effect or the level left
[16] = biological target: Serine/threonine-protein kinase Nek7 (Homo sapiens) (UniProt Q8TDX7); test: Inhibition of human NEK7 assessed as enzyme activity at 1 uM relative to control; set-up: scale not given: the % may be the effect or the level left
[17] = biological target: Protein kinase C beta type (Homo sapiens) (UniProt P05771); test: Inhibition of human PKCbeta1 assessed as enzyme activity at 1 uM relative to control; set-up: scale not given: the % may be the effect or the level left
[18] = biological target: Ribosomal protein S6 kinase alpha-2 (Homo sapiens) (UniProt Q15349); test: Inhibition of human Rsk3 assessed as enzyme activity at 1 uM relative to control; set-up: scale not given: the % may be the effect or the level left
[19] = biological target: Mitogen-activated protein kinase kinase kinase 5 (Homo sapiens) (UniProt Q99683); test: Inhibition of human MAP3K5 assessed as enzyme activity at 1 uM relative to control; set-up: scale not given: the % may be the effect or the level left
[20] = biological target: Protein kinase C gamma type (Homo sapiens) (UniProt P05129); test: Inhibition of human PKCgamma assessed as enzyme activity at 1 uM relative to control; set-up: scale not given: the % may be the effect or the level left
[21] = biological target: Serine/threonine-protein kinase Nek3 (Homo sapiens) (UniProt P51956); test: Inhibition of human NEK3 assessed as enzyme activity at 1 uM relative to control; set-up: scale not given: the % may be the effect or the level left
[22] = biological target: Serine/threonine-protein kinase Nek11 (Homo sapiens) (UniProt Q8NG66); test: Inhibition of human NEK11 assessed as enzyme activity at 1 uM relative to control; set-up: scale not given: the % may be the effect or the level left
[23] = biological target: Protein kinase C delta type (Homo sapiens) (UniProt Q05655); test: Inhibition of human PKCdelta assessed as enzyme activity at 1 uM relative to control; set-up: scale not given: the % may be the effect or the level left
[24] = biological target: Mitogen-activated protein kinase 3 (Homo sapiens) (UniProt P27361); test: Inhibition of human ERK1 assessed as enzyme activity at 1 uM relative to control; set-up: scale not given: the % may be the effect or the level left
[25] = biological target: Ephrin type-A receptor 1 (Homo sapiens) (UniProt P21709); test: Inhibition of human EphA1 assessed as enzyme activity at 1 uM relative to control; set-up: scale not given: the % may be the effect or the level left
[26] = biological target: Tyrosine-protein kinase Fes/Fps (Homo sapiens) (UniProt P07332); test: Inhibition of human Fes assessed as enzyme activity at 1 uM relative to control; set-up: scale not given: the % may be the effect or the level left
[27] = biological target: AMP-activated protein kinase (AMPK) alpha-1/beta-1/gamma-1 (Homo sapiens) (UniProt P54619+Q9Y478+Q13131); test: Inhibition of human AMPKA1/B1/G1 assessed as enzyme activity at 1 uM relative to control; assay type: protein-complex assay; set-up: scale not given: the % may be the effect or the level left
[28] = biological target: MAP kinase-activated protein kinase 5 (Homo sapiens) (UniProt Q8IW41); test: Inhibition of human MAPKAP-K5 assessed as enzyme activity at 1 uM relative to control; set-up: scale not given: the % may be the effect or the level left
[29] = biological target: Proto-oncogene tyrosine-protein kinase ROS (Homo sapiens) (UniProt P08922); test: Inhibition of human Ros assessed as enzyme activity at 1 uM relative to control; set-up: scale not given: the % may be the effect or the level left
[30] = biological target: Serine/threonine-protein kinase PAK 2 (Homo sapiens) (UniProt Q13177); test: Inhibition of human PAK2 assessed as enzyme activity at 1 uM relative to control; set-up: scale not given: the % may be the effect or the level left
[31] = biological target: Serine/threonine-protein kinase B-raf (Homo sapiens, UniProt P15056, V600E); test: Inhibition of full-length B-Raf V600E mutant (unknown origin)
[32] = biological target: Misshapen-like kinase 1 (Homo sapiens) (UniProt Q8N4C8); test: Inhibition of human MINK assessed as enzyme activity at 1 uM relative to control; set-up: scale not given: the % may be the effect or the level left
[33] = biological target: MAP kinase-activated protein kinase 3 (Homo sapiens) (UniProt Q16644); test: Inhibition of human MAPKAP-K3 assessed as enzyme activity at 1 uM relative to control; set-up: scale not given: the % may be the effect or the level left
[34] = biological target: Tyrosine-protein kinase Fyn (Homo sapiens) (UniProt P06241); test: Inhibition of human Fyn assessed as enzyme activity at 1 uM relative to control; set-up: scale not given: the % may be the effect or the level left
[35] = biological target: Vascular endothelial growth factor receptor 3 (Homo sapiens) (UniProt P35916); test: Inhibition of human Flt4 assessed as enzyme activity at 1 uM relative to control; set-up: scale not given: the % may be the effect or the level left
[36] = biological target: Homeodomain-interacting protein kinase 2 (Homo sapiens) (UniProt Q9H2X6); test: Inhibition of human HIPK2 assessed as enzyme activity at 1 uM relative to control; set-up: scale not given: the % may be the effect or the level left
[37] = biological target: Insulin receptor-related protein (Homo sapiens) (UniProt P14616); test: Inhibition of human IRR assessed as enzyme activity at 1 uM relative to control; set-up: scale not given: the % may be the effect or the level left
[38] = biological target: Serine/threonine-protein kinase Sgk2 (Homo sapiens) (UniProt Q9HBY8); test: Inhibition of human SGK2 assessed as enzyme activity at 1 uM relative to control; set-up: scale not given: the % may be the effect or the level left
Chain of Serine/threonine-protein kinase Sgk2 (Homo sapiens) (Q9HBY8 whole entry): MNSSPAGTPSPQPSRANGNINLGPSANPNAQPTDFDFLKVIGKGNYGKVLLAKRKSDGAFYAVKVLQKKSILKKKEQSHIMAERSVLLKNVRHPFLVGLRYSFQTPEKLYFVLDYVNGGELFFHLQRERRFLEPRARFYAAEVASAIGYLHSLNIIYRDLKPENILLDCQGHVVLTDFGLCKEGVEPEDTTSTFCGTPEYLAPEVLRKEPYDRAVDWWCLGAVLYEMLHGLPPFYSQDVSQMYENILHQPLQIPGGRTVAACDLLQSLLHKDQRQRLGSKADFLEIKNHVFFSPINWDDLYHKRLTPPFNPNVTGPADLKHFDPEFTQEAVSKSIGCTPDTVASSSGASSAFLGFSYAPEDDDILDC

Chain of Serine/threonine-protein kinase B-raf (P15056 2-766 V600E limits assumed): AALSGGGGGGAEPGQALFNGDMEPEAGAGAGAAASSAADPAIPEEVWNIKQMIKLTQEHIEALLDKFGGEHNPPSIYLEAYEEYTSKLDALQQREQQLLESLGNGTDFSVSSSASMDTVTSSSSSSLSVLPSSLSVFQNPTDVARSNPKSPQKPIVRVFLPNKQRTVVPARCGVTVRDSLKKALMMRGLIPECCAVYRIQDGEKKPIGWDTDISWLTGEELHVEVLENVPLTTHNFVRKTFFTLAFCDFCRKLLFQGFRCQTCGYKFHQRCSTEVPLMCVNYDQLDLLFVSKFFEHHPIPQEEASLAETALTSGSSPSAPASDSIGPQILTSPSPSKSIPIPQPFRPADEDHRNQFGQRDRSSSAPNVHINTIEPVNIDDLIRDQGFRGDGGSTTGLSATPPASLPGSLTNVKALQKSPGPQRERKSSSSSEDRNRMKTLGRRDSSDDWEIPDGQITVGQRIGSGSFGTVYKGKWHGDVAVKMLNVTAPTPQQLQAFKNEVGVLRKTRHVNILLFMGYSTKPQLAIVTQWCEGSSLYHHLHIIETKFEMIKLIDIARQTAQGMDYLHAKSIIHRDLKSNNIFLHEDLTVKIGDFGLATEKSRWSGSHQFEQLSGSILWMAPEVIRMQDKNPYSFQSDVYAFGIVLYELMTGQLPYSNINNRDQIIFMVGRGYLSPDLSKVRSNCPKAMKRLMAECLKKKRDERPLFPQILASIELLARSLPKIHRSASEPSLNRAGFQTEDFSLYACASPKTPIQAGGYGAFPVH
Chain of Protein-tyrosine kinase 6 (Homo sapiens) (Q13882 whole entry, looked up): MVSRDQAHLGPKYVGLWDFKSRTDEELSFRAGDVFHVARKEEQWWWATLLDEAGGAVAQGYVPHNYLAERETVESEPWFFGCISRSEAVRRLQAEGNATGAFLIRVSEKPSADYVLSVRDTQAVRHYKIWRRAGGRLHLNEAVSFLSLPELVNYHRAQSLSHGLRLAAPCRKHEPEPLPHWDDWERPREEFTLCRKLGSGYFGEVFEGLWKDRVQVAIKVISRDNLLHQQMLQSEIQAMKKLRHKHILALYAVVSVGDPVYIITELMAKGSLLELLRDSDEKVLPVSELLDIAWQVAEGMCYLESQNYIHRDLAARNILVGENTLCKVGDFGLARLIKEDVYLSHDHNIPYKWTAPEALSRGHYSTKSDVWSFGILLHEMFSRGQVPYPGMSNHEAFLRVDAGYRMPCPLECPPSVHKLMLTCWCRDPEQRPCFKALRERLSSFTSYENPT
Chain of NUAK family SNF1-like kinase 1 (Homo sapiens) (O60285 whole entry): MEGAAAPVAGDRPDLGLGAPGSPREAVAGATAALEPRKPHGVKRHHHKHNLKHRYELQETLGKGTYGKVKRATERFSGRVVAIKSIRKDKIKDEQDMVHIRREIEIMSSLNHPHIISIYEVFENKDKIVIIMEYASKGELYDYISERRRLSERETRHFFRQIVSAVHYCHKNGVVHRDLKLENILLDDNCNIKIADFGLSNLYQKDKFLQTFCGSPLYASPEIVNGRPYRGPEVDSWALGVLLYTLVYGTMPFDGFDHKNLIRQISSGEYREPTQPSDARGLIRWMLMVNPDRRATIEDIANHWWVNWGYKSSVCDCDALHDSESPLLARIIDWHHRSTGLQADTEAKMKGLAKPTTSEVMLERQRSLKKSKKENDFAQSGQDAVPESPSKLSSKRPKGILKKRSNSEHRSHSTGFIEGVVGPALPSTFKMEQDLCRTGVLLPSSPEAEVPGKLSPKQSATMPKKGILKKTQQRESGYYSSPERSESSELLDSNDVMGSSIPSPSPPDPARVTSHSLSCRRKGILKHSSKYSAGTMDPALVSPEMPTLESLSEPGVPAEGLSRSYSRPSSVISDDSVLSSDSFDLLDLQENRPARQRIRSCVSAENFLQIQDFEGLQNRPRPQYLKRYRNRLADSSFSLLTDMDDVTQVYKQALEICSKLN
Chain of Insulin receptor-related protein (Homo sapiens) (P14616 27-742 limits assumed): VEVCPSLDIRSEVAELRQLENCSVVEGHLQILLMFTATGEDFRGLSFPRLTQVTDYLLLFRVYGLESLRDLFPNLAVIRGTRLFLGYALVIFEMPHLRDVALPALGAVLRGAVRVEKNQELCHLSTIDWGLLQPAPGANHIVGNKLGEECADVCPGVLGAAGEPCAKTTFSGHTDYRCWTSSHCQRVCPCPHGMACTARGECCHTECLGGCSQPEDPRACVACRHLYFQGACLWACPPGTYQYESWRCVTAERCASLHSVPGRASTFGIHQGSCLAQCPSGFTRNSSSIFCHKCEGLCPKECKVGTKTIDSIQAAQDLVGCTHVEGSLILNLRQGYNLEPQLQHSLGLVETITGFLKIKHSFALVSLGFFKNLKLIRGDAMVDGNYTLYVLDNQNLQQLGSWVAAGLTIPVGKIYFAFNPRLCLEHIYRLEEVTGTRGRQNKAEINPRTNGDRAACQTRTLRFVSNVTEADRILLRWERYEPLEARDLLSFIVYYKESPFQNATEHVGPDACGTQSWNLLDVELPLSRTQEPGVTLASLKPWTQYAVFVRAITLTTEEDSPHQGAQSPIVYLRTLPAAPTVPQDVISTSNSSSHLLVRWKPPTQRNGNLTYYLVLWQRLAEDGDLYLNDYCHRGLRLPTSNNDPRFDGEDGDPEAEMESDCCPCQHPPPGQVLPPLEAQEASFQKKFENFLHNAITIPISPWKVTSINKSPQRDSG
Chain of Insulin receptor-related protein (Homo sapiens) (P14616 747-1297 limits assumed): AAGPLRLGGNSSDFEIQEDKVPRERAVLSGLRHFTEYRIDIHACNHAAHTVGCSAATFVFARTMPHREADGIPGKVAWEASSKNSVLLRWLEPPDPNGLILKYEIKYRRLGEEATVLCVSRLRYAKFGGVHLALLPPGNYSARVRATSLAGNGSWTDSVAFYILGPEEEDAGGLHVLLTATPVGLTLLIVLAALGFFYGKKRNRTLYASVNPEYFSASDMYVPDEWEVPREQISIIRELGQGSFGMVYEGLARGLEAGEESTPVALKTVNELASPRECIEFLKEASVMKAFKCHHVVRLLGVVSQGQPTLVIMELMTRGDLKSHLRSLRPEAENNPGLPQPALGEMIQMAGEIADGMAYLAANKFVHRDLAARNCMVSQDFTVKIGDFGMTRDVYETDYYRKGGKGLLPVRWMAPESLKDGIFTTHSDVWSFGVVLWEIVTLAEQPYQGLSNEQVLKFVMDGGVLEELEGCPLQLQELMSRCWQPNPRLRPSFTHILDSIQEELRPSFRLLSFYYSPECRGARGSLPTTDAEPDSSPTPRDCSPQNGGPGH
Chain of Serine/threonine-protein kinase Nek7 (Homo sapiens) (Q8TDX7 whole entry, looked up): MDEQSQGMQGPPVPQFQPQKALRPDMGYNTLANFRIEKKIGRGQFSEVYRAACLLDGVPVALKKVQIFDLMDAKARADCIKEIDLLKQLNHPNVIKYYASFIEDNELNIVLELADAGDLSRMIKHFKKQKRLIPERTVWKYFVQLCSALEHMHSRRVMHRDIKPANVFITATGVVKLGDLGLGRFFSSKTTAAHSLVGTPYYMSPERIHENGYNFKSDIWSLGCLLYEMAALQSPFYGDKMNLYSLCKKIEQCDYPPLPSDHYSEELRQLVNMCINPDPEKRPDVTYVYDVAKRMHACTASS
Chain of Serine/threonine-protein kinase Nek3 (Homo sapiens) (P51956 whole entry): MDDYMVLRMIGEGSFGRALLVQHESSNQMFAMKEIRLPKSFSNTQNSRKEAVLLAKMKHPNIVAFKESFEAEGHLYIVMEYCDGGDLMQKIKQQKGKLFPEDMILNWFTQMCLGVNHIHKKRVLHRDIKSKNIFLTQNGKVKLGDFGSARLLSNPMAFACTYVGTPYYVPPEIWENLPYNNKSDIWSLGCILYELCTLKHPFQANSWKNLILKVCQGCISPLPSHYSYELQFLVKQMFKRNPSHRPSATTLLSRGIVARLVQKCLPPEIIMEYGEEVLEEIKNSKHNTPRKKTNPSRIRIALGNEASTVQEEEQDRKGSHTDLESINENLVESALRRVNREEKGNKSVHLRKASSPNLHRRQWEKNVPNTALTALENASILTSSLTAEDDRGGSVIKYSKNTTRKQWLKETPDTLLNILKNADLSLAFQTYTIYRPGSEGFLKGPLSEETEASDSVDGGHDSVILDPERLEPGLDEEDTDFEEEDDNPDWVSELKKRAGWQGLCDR
Chain of Protein kinase C delta type (Homo sapiens) (Q05655 whole entry, looked up): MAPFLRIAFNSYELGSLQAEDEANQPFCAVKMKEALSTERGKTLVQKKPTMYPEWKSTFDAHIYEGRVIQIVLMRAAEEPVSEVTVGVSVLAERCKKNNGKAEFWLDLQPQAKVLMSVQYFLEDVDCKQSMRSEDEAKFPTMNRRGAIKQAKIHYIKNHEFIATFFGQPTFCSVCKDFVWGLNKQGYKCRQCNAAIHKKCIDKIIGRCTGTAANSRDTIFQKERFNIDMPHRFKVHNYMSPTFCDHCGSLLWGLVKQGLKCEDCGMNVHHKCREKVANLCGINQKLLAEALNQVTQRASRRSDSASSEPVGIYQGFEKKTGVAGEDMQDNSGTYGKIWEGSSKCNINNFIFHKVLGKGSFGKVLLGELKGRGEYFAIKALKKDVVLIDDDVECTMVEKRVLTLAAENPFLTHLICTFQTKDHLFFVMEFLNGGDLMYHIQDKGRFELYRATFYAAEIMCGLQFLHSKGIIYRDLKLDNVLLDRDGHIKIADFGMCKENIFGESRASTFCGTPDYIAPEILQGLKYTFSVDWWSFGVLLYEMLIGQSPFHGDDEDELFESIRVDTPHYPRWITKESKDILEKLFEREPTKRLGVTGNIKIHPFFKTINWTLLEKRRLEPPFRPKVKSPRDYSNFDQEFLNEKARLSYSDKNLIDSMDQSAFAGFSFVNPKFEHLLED

`CCCS(=O)(=O)Nc1cccc(Nc2ccc3ncn(C)c(=O)c3c2)c1C#N` was tested, and the Activity [1] was 102%, the Activity [2] was 109% and the Activity [3] was 104%. For the same compound, the Activity [4] was 109%, the Activity [5] was 99.5% and the Activity [6] was 100%. It also gave an Activity [7] of 96%, an Activity [8] of 57.5% and an Activity [9] of 97%. It also gave an Activity [10] of 112%, an Activity [11] of 106% and an Activity [12] of 109%. It also gave an Activity [13] of 110%, an Activity [14] of 121% and an Activity [15] of 102%. For the same compound, the Activity [16] was 110%, the Activity [17] was 87% and the Activity [18] was 87%. The Activity [19] was 96%, the Activity [20] was 101% and the Activity [21] was 112%. For the same compound, the Activity [22] was 93.5%, the Activity [23] was 100% and the Activity [24] was 99%. The Activity [25] was 101%, the Activity [26] was 92% and the Activity [27] was 95%. It also gave an Activity [28] of 104%, an Activity [29] of 108% and an Activity [30] of 114%. For the same compound, the pIC50 [31] was 9.52, the Activity [32] was 106% and the Activity [33] was 121%. It also gave an Activity [34] of 91.5%, an Activity [35] of 79.5% and an Activity [36] of 100%. The Activity [37] was 101% and the Activity [38] was 109%.
